Laboratory results: patent publication US12485132B2, “GPX4 inhibitors and senolytic compounds and uses thereof” (Rubedo Life Sciences, Inc., priority 2023, dated 2025)

What was measured:
GPX4 [1] = molecular target: T1, GPX4 (Homo sapiens, UniProt P36969); assay: Glutathione peroxidase 4 inhibitor screening assay (Cayman 701880); assay type: biochemical; design: purchased Cayman Chemical 701880; settings: preincubated with GPX4 for 1.5 hours; for inhibition at 2.5 µM: 2.50 μM
T1 sequence (P36969 1-197): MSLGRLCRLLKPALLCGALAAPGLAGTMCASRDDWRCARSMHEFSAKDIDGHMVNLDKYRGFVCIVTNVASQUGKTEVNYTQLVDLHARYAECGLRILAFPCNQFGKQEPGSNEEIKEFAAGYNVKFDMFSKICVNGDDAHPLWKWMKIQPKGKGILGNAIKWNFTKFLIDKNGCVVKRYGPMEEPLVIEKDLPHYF
Description: Enzymatic activity of (GPX4) was analyzed using for example the glutathione peroxidase 4 inhibitor screening assay (Item No. 701880, Cayman Chemical, Michigan USA), which is designed to identify inhibitors of the GPX4. GPX4 activity can be assessed by using cumene hydroperoxide as the substrate (Lawrence and Bur, Biochem Biophys Res Commun 1976 71 (4): 952). The GPX4 enzyme employs reduced glutathione (GSH) as electron donor. Glutathione disulfide ([…]) which is formed is recycled back to the reduced state by glutathione reductase (EC no. 1.8.1.7) and NADPH. The oxidation of NADPH to NADP+ is accompanied by a decrease in absorbance at 340 nm measured by a UV/vis spectrometer which allows for an indirect assessment of GPX4 activity. In brief, compounds were preincubated with recombinant human GPX4 enzyme for 1.5 hours at room temperature or 37° C. followed by the addition of glutathione reductase, GSH, cumene hydroperoxide and NADPH. Kinetic changes in absorbance were measured. Uninhibited activity was set to 100% activity, and a condition without the addition of GPX4 enzyme was used to estimate complete inhibition of GPX4 activity. ML162, a prototype GPX4 inhibitor (Moosmayer et al., Acta Crystallogr D Struct Biol 2021 77 (Pt 2): 237-248; Shin et al., Free Rad Biol Med 2018 129:454-462) was used as a reference compound titrated from top concentration of 25 μM. All compounds were tested from 25 μm as the top concentration in duplicates with the inhibitory activity of selected compounds results in the GPX4 inhibitor screening assay shown in Table 3.

senescent HEPG2 cells = assay: Senescence assay: viability of senescent HEPG2 cells; assay type: cell-based; settings: Homo sapiens, 24-72 hours incubation, viability by CellTiter-Glo or XTT, read-out: Absolute IC50 average HEPG2_SEN IC50
Procedure, shortened: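 A549 and HEPG2 cells made senescent by sublethal chemotherapy (bleomycin, gemcitabine, doxorubicin or 5-fluorouridine) plus recovery, verified by low EdU and high SA-β-Gal. Ten-point duplicate dosing for 24-72 h; viability by CellTiter-Glo or XTT versus untreated cells; absolute IC50 from four-parameter Hill fit.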

[2] = tested on: senescent normal human dermal fibroblasts; assay: Rescue of compound-induced cell death by ferrostatin-1 in senescent fibroblasts; assay type: cell-based; settings: compounds at 1.11 μM, ferrostatin-1 at 0.375 and 6 μM; 24 hours; CellTiter-Glo
Text: Cell death induced by ferroptosis-inducing agents can be characterized by rescuing the cellular response with radical trapping agents that prevent the accumulation of phospholipid hydroperoxides (Stockwell et al., Cell Chem Biol 2020 27 (4): 365-375). As such, ferrostatin-1 was identified as a potent inhibitor of ferroptosis for which a free radical trapping mechanism had been reported (Skouta et al., J Am Chem Soc 2014 136 (12): 4551-6; Zika et al., ACS Cent Sci. 2017 3 (3): 232-243; and Miotto et al., Redox Biol. 2020; 101328). To determine whether compounds 18 and 32 induce ferroptosis in senescent cells, normal human dermal fibroblasts were induced to undergo senescence by treatment with a sublethal concentration of chemotherapy (bleomycin sulfate), followed by a rest period without chemotherapy similarly to previous reports (Aoshiba et al., 2003 3:436-43). Cells were maintained in DMEM media (high glucose, 4 mM L-glutamine, no sodium pyruvate) supplemented with 10% heat-inactivated fetal bovine serum in a humidified incubator at 37° C. with 5% carbon dioxide and 5% oxygen. Cellular senescence was qualified by reduced EdU (5-ethynyl-2′-deoxyuridine) incorporation and increased SA-β-Gal (senescence-associated beta-galactosidase) staining compared to proliferating untreated cells. Senescent fibroblasts were plated into 96-well plates at a density of 10,000 cells per well. The next day, ferrostatin-1 was diluted in cell medium to reach a final concentration of 0.375 and 6 μM and was added to cells. Approximately 30 minutes after the addition of ferrostatin-1, compounds 18 and 32 at 1.11 μM, or the peptidyl transfer inhibitor puromycin at 10 μM were added to cells. Cells were incubated with the compounds for 24 hours, at which point viability was quantified using the CellTiter-Glo assay (Promega). The viability for treated cells was determined relative to untreated control cells.

senescent A549 cells = assay: Senescence assay: viability of senescent A549 cells; assay type: cell-based; settings: Homo sapiens, 24-72 hours incubation, viability by CellTiter-Glo or XTT, read-out: Absolute IC50 average A549_SEN IC50
Description: Cells were maintained in DMEM media (high glucose, 4 mM L-glutamine, no sodium pyruvate) supplemented with 10% fetal bovine serum in a humidified incubator at 37° C. with 5% carbon dioxide. Senescence was induced via treatment with a sublethal concentration of chemotherapy (bleomycin, gemcitabine, doxorubicin, 5-fluorouridine), followed by a rest period without chemotherapy similarly to what is reported by others in the field (e.g., Aoshiba et al., 2003 Eur Respir J 22:436-443). Senescence was qualified by low EdU (5-ethynyl-2′-deoxyuridine) incorporation and high SA-β-Gal (senescence-associated beta-galactosidase) staining compared to proliferating untreated cells. Senescent cells were plated into 96-well plates at a density of 5-15,000 cells/well. The next day, compounds were added in duplicate across ten different concentrations spanning roughly four Log10 units. Cells were incubated with the compounds for 24-72 hours, at which point viability was quantified using CellTiter-Glo (Promega) or XTT (R&D Systems). The viability for treated cells was determined relative to untreated control cells. The log of the compound concentration vs. normalized mean viability was fit to a four parameters Hill function with variable slope. The bottom was constrained to be greater than zero. The X mean value for Y=50 was interpolated to determine the absolute IC50. The results in Table 2 indicate that many of the compounds are active in cells and can induce a dose dependent decrease in the viability of senescent HEPG2 and A549 cells.

GPX4 [3] = molecular target: T1, GPX4; assay: Competitive binding to GPX4 in A549 cells with biotinylated analog, streptavidin pull-down; assay type: cell-based; design: host or cells: A549; settings: 2 μM for 2 hours before 2 μM compound 21 for 5 hours
Description: Binding of compounds 32 and 69 to the target protein GPX4 in cultured cells can be assessed by the use of biotinylated analogs such as compound 21 that retain their cellular activities. Cells or tissue simultaneously or sequentially exposed to compounds 32 and 69 and biotinylated analog 21 can be analyzed for exogenous biotinylated proteins and thereby enables the identification of cellular targets of compounds 32 and 69. The A549 cancer cell line (ATCC) was exposed to 2 μM of compounds 32 and 69 for 2 hours followed by the addition of 2 μM of compound 21 for 5 hours. Cells were collected and lysed by IGEPAL CA-630 and sodium dodecyl sulfate (SDS) in the presence of a protease inhibitor cocktail (4693132001, Roche). The soluble protein fraction was isolated and incubated with Streptavidin Mag Sepharose (28-9857-38, Cytiva) at 4° C. for 16 hours. The streptavidin-unbound fraction was collected allowing for the quantification of the proportion of GPX4 depleted by the biotinylated compound 21 relative to samples not treated with Streptavidin Mag Sepharose. Furthermore, biotinylated proteins were eluted from Streptavidin Mag Sepharose by head-denaturation in the presence of excess biotin (5 mM). […] Chemiluminescent following HRP substrate addition (34580, ThermoFisher) was detected by the ChemiDoc XRS+ System (Bio-Rad). […]

Row | Compound | inhibition at 0.25 µM (GPX4 [1]) | inhibition at 2.5 µM (GPX4 [1]) | inhibition at 25 µM (GPX4 [1]) | IC50 (senescent HEPG2 cells) | inhibition by ferrostatin-1 of compound-induced cell death [2] | IC50 (senescent A549 cells) | effect of pre-treatment on compound 21 dependent depletion of GPX4 protein (GPX4 [3])
1 | C#CC(F)(F)[C@]1(O)CC[C@H]2[C@@H]3CCC4=CC(=NOCC(=O)O)CCC4=C3[C@@H](c3ccc(C4CC4)cc3)C[C@@]21C [Compound 17, 2-((((8S,11R,13S,14S,17S)-11-(4-cyclopropylphenyl)-17-(1,1-difluoroprop-2-yn-1-yl)-17-hydroxy-13-methyl-1,2,6,7,8,11,12,13,14,15,16,17-dodecahydro-3H-cyclopenta[a]phenanthren-3-ylidene)amino)oxy)acetic acid] | 30% | 99% | 102% | ≥ 1000 nM |  |  | 
2 | C#CC(F)(F)[C@]1(O)CC[C@H]2[C@@H]3CCC4=CC(=NOCCO)CCC4=C3[C@@H](c3ccc(C4CC4)cc3)C[C@@]21C [Compound 18, (8S,11R,13S,14S,17S)-11-(4-cyclopropylphenyl)-17-(1,1-difluoroprop-2-yn-1-yl)-17-hydroxy-13-methyl-1,2,6,7,8,11,12,13,14,15,16,17-dodecahydro-3H-cyclopenta[a]phenanthren-3-one O-(2-hydroxyethyl)oxime] |  |  |  | 0.1 to 10 nM | potently inhibits cell death induced by compounds 18 and 32 | 10 to 100 nM | 
3 | CCOC(=O)c1ccc(NC2CCCCC2)c(N)c1 [ferrostatin-1, reference compound] |  |  |  |  | potently inhibits cell death |  | 
4 | C#CC(F)(F)[C@]1(O)CC[C@H]2[C@@H]3CCC4=C/C(=N/NC(=O)NC5CC5)CCC4=C3[C@@H](c3ccc(C4CC4)cc3)C[C@@]21C [Compound 69, (E)-N-cyclopropyl-2-((8S,11R,13S,14S,17S)-11-(4-cyclopropylphenyl)-17-(1,1-difluoroprop-2-yn-1-yl)-17-hydroxy-13-methyl-1,2,6,7,8,11,12,13,14,15,16,17-dodecahydro-3H-cyclopenta[a]phenanthren-3-ylidene)hydrazine-1-carboxamide] |  |  |  |  |  |  | reduces the compound 21 dependent depletion of GPX4 protein
5 | C#CC(F)(F)[C@]1(O)CC[C@H]2[C@@H]3CCC4=C/C(=N/NC(=O)NCCO)CCC4=C3[C@H](c3ccc(C4CC4)cc3)C[C@@]21C [Compound 26, (E)-2-((8S,11S,13S,14S,17S)-11-(4-cyclopropylphenyl)-17-(1,1-difluoroprop-2-yn-1-yl)-17-hydroxy-13-methyl-1,2,6,7,8,11,12,13,14,15,16,17-dodecahydro-3H-cyclopenta[a]phenanthren-3-ylidene)-N-(2-hydroxyethyl)hydrazine-1-carboxamide] | 16% | 67% | 74% | 0.1 to 10 nM |  | 0.1 to 10 nM | 
6 | C#CC(F)(F)[C@]1(O)CC[C@H]2[C@@H]3CCC4=C/C(=N/NS(=O)(=O)C5CC5)CCC4=C3[C@H](c3ccc(C4CC4)cc3)C[C@@]21C [Compound 51, N′-((8S,11S,13S,14S,17S,E)-11-(4-cyclopropylphenyl)-17-(1,1-difluoroprop-2-yn-1-yl)-17-hydroxy-13-methyl-1,2,6,7,8,11,12,13,14,15,16,17-dodecahydro-3H-cyclopenta[a]phenanthren-3-ylidene)cyclopropanesulfonohydrazide] | 12% | 45% | 41% | 0.1 to 10 nM |  |  | 
